Measurements: US20050148786A1, “Diimmonium compound and use thereof” (Nippon Kayaku Kabushiki Kaisha, priority 2003, published 2005)

How the values were obtained:
[1] = Stability test of light fastness of diimmonium compound thin film; assay type: physicochemical
Description: 0.1 part of the Compound No. 3 was added to 10 part of tetrafluoropropanol to produce a coating solution. The obtained coating solution was applied to a polycarbonate substrate by spin coating to form a thin film of the diimmonium compound. The […] source output: 0.36 W/m^2; bath temperature: 24° C.; black panel temperature: 40° C.; humidity: 30% RH: by a Weatherometer (Ci4000, manufactured by Atlas Co.). After that, the remaining ratio of the diimmonium compound was measured by a spectrophotometer.
For comparison, a dye film was formed and evaluated in the same manner, except that the compound described in Patent Document No. 3; hexafluoroantimonate of tetrakis[p-di(n-butyl)aminophenyl]phenylenediimmonium (Comparative Example 8: Compound No. 153); was used in place of the Compound No. 3.

[2] = thermal decomposition point (weight decrease starting point) by TG-DTA; assay type: physicochemical; conditions: measured by TG-DTA
Description: the melting point: around 170° C.; and the thermal decomposition point (the weight decrease starting point): around 280° C. (measured by TG-DTA)

[3] = Comparative test of solubility measurement; conditions: room temperature
Description: The solubility was measured for the compounds obtained in the above-mentioned Examples at a room temperature in methyl ethyl ketone (MEK) and toluene.

[4] = Stability test of light fastness of cyanine dye film; assay type: physicochemical
Description: 0.3 part of the cyanine dye (OM-57) was dissolved in 15 part of tetrafluoropropanol and 0.04 part of the Compound No. 3 was added to the obtained solution to produce a coating solution. The obtained coating solution was applied to a polycarbonate substrate by spin coating to form a dye film. The […] the conditions: light source output: 0.36 W/m^2; bath temperature: 24° C.; black panel temperature: 40° C.; humidity: 30% RH: by a Weatherometer (Ci4000, manufactured by Atlas Co.). After that, the remaining ratio of the cyanine dye was measured by a spectrophotometer.
For comparison, a dye film was formed and evaluated in the same manner, except that the compound described in Patent Document No. 3; hexafluoroantimonate of tetrakis[p-di(n-butyl)aminophenyl]phenylenediimmonium (Comparative Example 7: Compound No. 153); was used in place of the Compound No. 1.

[5] = maximum absorption wavelength (λmax) in dichloromethane; assay type: physicochemical
Description: λmax: 1,102 nm (in dichloromethane);

[6] = Stability test of moisture-and-heat resistance of near-IR absorption filter; assay type: physicochemical
Description: 1.2 part of each compound obtained in each Example was dissolved in 18.8 part of MEK. 80 part of a resin solution obtained by dissolving 25 part of an acrylic resin (Dianal BR-80, manufactured by Mitsubishi Rayon Co., Ltd.) in 75 part of MEK was mixed with the obtained solution to obtain a solution for coating. The solution was applied to form a film with a thickness of 2 to 4 μm on a polyester film and dried at 80° C. to obtain a near-IR absorption filter of the invention.
The obtained near-IR absorption filter was subjected to a stability test of moisture-and-heat resistance for 14 days in a constant temperature and constant humidity apparatus under 60° C. and 95% RH conditions. The filter was subjected to color measurement by a spectrophotometer before and after the test to calculate L*, a*, and b* values. If the + value of b* value is high, it means that the hue is yellowish and if b* value is close to 0, it means that the yellowish degree is low and filter is desirable and therefore, the hue evaluation and stability evaluation were done based on the b* value and its change.

[7] = Comparative test of molar absorption coefficient measurement; assay type: physicochemical; conditions: in dichloromethane; in M-1·cm-1
Description: The compounds obtained in the above-mentioned Examples were subjected to the measurement of molar absorption coefficient (ε) in dichloromethane.

[8] = Weatherometer 0.36 W/m^2, 24° C., 30% RH, 100-hour
[9] = Weatherometer 0.36 W/m^2, 24° C., 30% RH, 150-hour

## N#CCCCN(CCCC#N)c1ccc([N+](=C2C=CC(=[N+](c3ccc(N(CCCC#N)CCCC#N)cc3)c3ccc(N(CCCC#N)CCCC#N)cc3)C=C2)c2ccc(N(CCCC#N)CCCC#N)cc2)cc1.O=S(=O)([N-]S(=O)(=O)C(F)(F)F)C(F)(F)F.O=S(=O)([N-]S(=O)(=O)C(F)(F)F)C(F)(F)F [Compound No. 3]
[1]; [8]
  remaining ratio of diimmonium compound (%), 100-hour after: 88%
[1]; [9]
  remaining ratio of diimmonium compound (%), 150-hour after: 86%
[1]; thin film on polycarbonate, before irradiation
  remaining ratio of diimmonium compound (%), initial period: 100%
[2]
  thermal decomposition point (the weight decrease starting point): around 282 °C
[3]; methyl ethyl ketone
  solubility in MEK: 2%
[3]; toluene
  solubility in toluene: insoluble
[4]; OM-57 dye film with compound added, before irradiation
  remaining ratio of cyanine dye (%), initial period: 100%
[4]; [8]
  remaining ratio of cyanine dye (%), 100-hour after: 47%
[4]; [9]
  remaining ratio of cyanine dye (%), 150-hour after: 27%
[5]
  λmax: 1,064 nm
[6]; 14-day after minus initial, 60° C. and 95% RH
  b* value, difference: 2.5
[6]; acrylic resin filter, 14 days at 60° C. and 95% RH
  b* value, 14-day after: 6.1
[6]; acrylic resin filter, before test
  b* value, initial period: 3.6
[7]
  molar absorption coefficient (ε): 109,000
